In patent US20230271954A1 (Gossamer Bio Services, Inc., priority 2020, published 2023):

What was measured:
DGKζ = target: T1, DGKζ (Homo sapiens, UniProt Q13574); test: DGKζ biochemical assay (ADP-Glo); conditions: read-out: DGK ζ IC50
T1 construct: purchased Carna 12-110

DGKα = DGKα (Homo sapiens, UniProt P23743); test: DGKα biochemical assay (ADP-Glo); conditions: read-out: DGK α IC50
How it was run: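 ADP-Glo kinase assay using OAG/PS (1:2) lipid substrate, sonicated, in HEPES pH 7.0 buffer with MgCl2, CaCl2, DTT, BSA, Triton X-100. Enzyme preincubated with compound 30 min at RT; substrate with ATP (DGKα: 400 μM) added, 45 min RT. Luminescence read; % inhibition vs DMSO and no-enzyme controls.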

T1 sequence (Q13574 1-929 isoform Q13574-4): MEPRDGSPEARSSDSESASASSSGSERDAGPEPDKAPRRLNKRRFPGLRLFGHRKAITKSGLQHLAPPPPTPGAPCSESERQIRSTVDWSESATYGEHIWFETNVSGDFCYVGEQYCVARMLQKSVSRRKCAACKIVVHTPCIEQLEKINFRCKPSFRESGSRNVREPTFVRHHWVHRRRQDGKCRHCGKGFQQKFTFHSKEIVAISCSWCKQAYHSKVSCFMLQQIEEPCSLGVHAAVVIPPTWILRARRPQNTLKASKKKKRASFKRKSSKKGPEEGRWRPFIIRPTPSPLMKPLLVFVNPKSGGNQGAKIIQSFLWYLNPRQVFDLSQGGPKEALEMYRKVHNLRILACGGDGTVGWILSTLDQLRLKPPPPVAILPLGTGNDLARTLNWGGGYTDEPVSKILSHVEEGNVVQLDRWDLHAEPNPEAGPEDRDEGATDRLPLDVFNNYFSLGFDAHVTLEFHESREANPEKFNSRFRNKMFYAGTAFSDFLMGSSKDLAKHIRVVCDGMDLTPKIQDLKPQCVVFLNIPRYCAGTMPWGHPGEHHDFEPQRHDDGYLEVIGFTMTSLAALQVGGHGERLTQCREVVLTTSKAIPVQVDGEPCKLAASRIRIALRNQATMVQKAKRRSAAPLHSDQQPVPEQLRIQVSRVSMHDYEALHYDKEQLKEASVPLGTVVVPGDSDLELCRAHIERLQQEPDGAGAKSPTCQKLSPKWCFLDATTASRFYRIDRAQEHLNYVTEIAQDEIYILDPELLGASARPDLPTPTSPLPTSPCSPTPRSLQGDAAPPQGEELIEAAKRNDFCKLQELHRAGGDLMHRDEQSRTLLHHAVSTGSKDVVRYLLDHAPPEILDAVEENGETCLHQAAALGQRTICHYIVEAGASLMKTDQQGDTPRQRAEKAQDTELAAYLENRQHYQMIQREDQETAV
Sequence of DGKα (P23743 whole entry): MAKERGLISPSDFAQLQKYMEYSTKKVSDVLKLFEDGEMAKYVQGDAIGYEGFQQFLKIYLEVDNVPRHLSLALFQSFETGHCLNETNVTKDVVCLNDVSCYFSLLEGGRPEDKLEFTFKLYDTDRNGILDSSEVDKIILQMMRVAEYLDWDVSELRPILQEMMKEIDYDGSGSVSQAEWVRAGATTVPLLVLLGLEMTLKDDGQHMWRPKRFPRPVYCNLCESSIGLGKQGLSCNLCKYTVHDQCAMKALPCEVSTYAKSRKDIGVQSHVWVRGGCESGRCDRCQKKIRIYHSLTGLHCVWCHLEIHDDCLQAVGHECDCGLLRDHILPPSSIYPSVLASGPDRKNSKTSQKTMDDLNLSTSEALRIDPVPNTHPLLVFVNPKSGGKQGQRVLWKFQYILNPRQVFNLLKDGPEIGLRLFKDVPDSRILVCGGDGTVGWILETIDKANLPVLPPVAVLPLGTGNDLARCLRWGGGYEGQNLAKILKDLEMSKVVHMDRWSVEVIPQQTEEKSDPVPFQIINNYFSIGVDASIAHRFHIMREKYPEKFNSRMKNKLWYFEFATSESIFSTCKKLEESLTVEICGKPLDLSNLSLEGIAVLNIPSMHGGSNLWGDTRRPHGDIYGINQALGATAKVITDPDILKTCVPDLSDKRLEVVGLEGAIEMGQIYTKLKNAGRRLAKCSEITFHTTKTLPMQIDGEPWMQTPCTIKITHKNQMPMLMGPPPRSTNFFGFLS

SMILES	IC50 (DGKζ)	IC50 (DGKα)
COc1cccc(N(CC2CC2)[C@H]2CC[C@H](N(C)c3c(C#N)c(=O)n(C)c4cccnc34)CC2)c1 [Example 13, trans-4-((4-((cyclopropylmethyl)(3-methoxyphenyl)amino)cyclohexyl)(methyl)amino)-1-methyl-2-oxo-1,2-dihydro-1,5-naphthyridine-3-carbonitrile]	≥ 1000 nM	10 to 100 nM
COc1cccc(N(CC2CC2)[C@H]2CC[C@H](N(C)c3cc(=O)n(C)c4ccc(C#N)nc34)CC2)c1 [Example 14, trans-8-((4-((cyclopropylmethyl)(3-methoxyphenyl)amino)cyclohexyl)(methyl)amino)-5-methyl-6-oxo-5,6-dihydro-1,5-naphthyridine-2-carbonitrile]	≥ 1000 nM	≥ 1000 nM
COc1cccc(N(CC2CC2)[C@H]2CC[C@@H](N(C)c3c(C#N)c(=O)n(C)c4cccnc34)CC2)c1 [Example 15, cis-4-((4-((cyclopropylmethyl)(3-methoxyphenyl)amino)cyclohexyl)(methyl)amino)-1-methyl-2-oxo-1,2-dihydro-1,5-naphthyridine-3-carbonitrile]	≥ 1000 nM	100 to 1000 nM
COc1cc(F)ccc1N(C1CCC1)[C@H]1CC[C@@H](N(C)c2c(C#N)c(=O)n(C)c3ccc(C#N)nc23)CC1 [Example 18, cis-8-((4-(cyclobutyl(4-fluoro-2-methoxyphenyl)amino)cyclohexyl)(methyl)amino)-5-methyl-6-oxo-5,6-dihydro-1,5-naphthyridine-2,7-dicarbonitrile]	100 to 1000 nM	100 to 1000 nM
Cn1c(=O)c(C#N)c(N(C)[C@H]2CC[C@H](N(c3ccc(F)cc3)C3CCC3)CC2)c2nc(C#N)ccc21 [Example 19]	100 to 1000 nM	100 to 1000 nM
COc1cccc(N(CC2CC2)[C@H]2CC[C@H](N(C)c3c(C#N)c(=O)n(C)c4ccc(Cl)nc34)CC2)c1 [Example 21, trans-6-chloro-4-((4-((cyclopropylmethyl)(3-methoxyphenyl)amino)cyclohexyl)(methyl)amino)-1-methyl-2-oxo-1,2-dihydro-1,5-naphthyridine-3-carbonitrile]	≥ 1000 nM	10 to 100 nM
Cn1c(=O)c(C#N)c(N(C)[C@H]2CC[C@@H](N(CC3CC3)c3cccc(F)c3)CC2)c2nc(Cl)ccc21 [Example 22, cis-6-chloro-4-((4-((cyclopropylmethyl)(3-fluorophenyl)amino)cyclohexyl)(methyl)amino)-1-methyl-2-oxo-1,2-dihydro-1,5-naphthyridine-3-carbonitrile]	≥ 1000 nM	≥ 1000 nM
Cn1c(=O)cc(N(C)[C@H]2CC[C@H](N(CC3CC3)c3cccc(F)c3)CC2)c2nc(C#N)ccc21 [Example 25, trans-8-((4-((cyclopropylmethyl)(3-fluorophenyl)amino)cyclohexyl)(methyl)amino)-5-methyl-6-oxo-5,6-dihydro-1,5-naphthyridine-2-carbonitrile]	≥ 1000 nM	≥ 1000 nM
Cn1c(=O)c(C#N)c(N(C)[C@H]2CC[C@H](N(CC3CC3)c3cccc(F)c3)CC2)c2nc(C#N)ccc21 [Example 27, trans-8-((4-((cyclopropylmethyl)(3-fluorophenyl)amino)cyclohexyl)(methyl)amino)-5-methyl-6-oxo-5,6-dihydro-1,5-naphthyridine-2,7-dicarbonitrile]	100 to 1000 nM	100 to 1000 nM
COc1cccc(N(CC2CC2)[C@H]2CC[C@@H](N(C)c3c(C#N)c(=O)n(C)c4ccc(C#N)nc34)CC2)c1 [Example 28, cis-8-((4-((cyclopropylmethyl)(3-methoxyphenyl)amino)cyclohexyl)(methyl)amino)-5-methyl-6-oxo-5,6-dihydro-1,5-naphthyridine-2,7-dicarbonitrile]	100 to 1000 nM	10 to 100 nM
COc1cccc(N(CC2CC2)[C@H]2CC[C@H](N(C)c3c(C#N)c(=O)n(C)c4ccc(C#N)nc34)CC2)c1 [Example 29, trans-8-((4-((cyclopropylmethyl)(3-methoxyphenyl)amino)cyclohexyl)(methyl)amino)-5-methyl-6-oxo-5,6-dihydro-1,5-naphthyridine-2,7-dicarbonitrile]	≥ 1000 nM	100 to 1000 nM
Cn1c(=O)c(C#N)c(N(C)[C@H]2CC[C@@H](N(CC3CC3)c3ccc(F)cc3)CC2)c2nc(C#N)ccc21 [Example 30, cis-8-((4-((cyclopropylmethyl)(4-fluorophenyl)amino)cyclohexyl)(methyl)amino)-5-methyl-6-oxo-5,6-dihydro-1,5-naphthyridine-2,7-dicarbonitrile]	10 to 100 nM	< 10 nM
COc1cc(N(CC2CC2)[C@H]2CC[C@@H](N(C)c3c(C#N)c(=O)n(C)c4ccc(Cl)nc34)CC2)ccc1F [Example 32, cis-6-chloro-4-((4-((cyclopropylmethyl)(4-fluoro-3-methoxyphenyl)amino)cyclohexyl)(methyl)amino)-1-methyl-2-oxo-1,2-dihydro-1,5-naphthyridine-3-carbonitrile]	≥ 1000 nM	10 to 100 nM
COc1cc(N(CC2CC2)[C@H]2CC[C@@H](N(C)c3c(C#N)c(=O)n(C)c4ccc(C#N)nc34)CC2)ccc1F [Example 33, cis-8-((4-((cyclopropylmethyl)(4-fluoro-3-methoxyphenyl)amino)cyclohexyl)(methyl)amino)-5-methyl-6-oxo-5,6-dihydro-1,5-naphthyridine-2,7-dicarbonitrile]	100 to 1000 nM	100 to 1000 nM
Cn1c(=O)c(C#N)c(N(C)[C@H]2CC[C@@H](N(CC3CC3)c3ccc(Cl)cc3)CC2)c2nc(C#N)ccc21 [Example 35, cis-8-((4-((4-chlorophenyl)(cyclopropylmethyl)amino)cyclohexyl)(methyl)amino)-5-methyl-6-oxo-5,6-dihydro-1,5-naphthyridine-2,7-dicarbonitrile]	≥ 1000 nM	< 10 nM
COc1cc(N(CC2CC2)[C@H]2CC[C@H](N(C)c3cc(=O)n(C)c4ccc(C#N)nc34)CC2)ccc1F [Example 36, trans-8-((4-((cyclopropylmethyl)(4-fluoro-3-methoxyphenyl)amino)cyclohexyl)(methyl)amino)-5-methyl-6-oxo-5,6-dihydro-1,5-naphthyridine-2-carbonitrile]	≥ 1000 nM	≥ 1000 nM
COc1cc(F)ccc1N(C1CC1)[C@H]1CC[C@H](N(C)c2c(C#N)c(=O)n(C)c3ccc(C#N)nc23)CC1 [Example 37, trans-8-((4-(cyclopropyl(4-fluoro-2-methoxyphenyl)amino)cyclohexyl)(methyl)amino)-5-methyl-6-oxo-5,6-dihydro-1,5-naphthyridine-2,7-dicarbonitrile]	100 to 1000 nM	≥ 1000 nM

Second part, the compound after the results:

IC50 (DGKζ)	IC50 (DGKα)	SMILES
100 to 1000 nM	< 10 nM	Cn1c(=O)c(C#N)c(N(C)[C@H]2CC[C@@H](N(c3ccc(F)cc3)C3CCC3)CC2)c2nc(C#N)ccc21 [Example 16]
≥ 1000 nM	≥ 1000 nM	COc1cc(F)ccc1N(C1CCC1)[C@H]1CC[C@@H](N(C)c2c(C#N)c(=O)n(C)c3ccc(Cl)nc23)CC1 [Example 17, cis-6-chloro-4-((4-(cyclobutyl(4-fluoro-2-methoxyphenyl)amino)cyclohexyl)(methyl)amino)-1-methyl-2-oxo-1,2-dihydro-1,5-naphthyridine-3-carbonitrile]
≥ 1000 nM	10 to 100 nM	Cn1c(=O)c(C#N)c(N(C)[C@H]2CC[C@H](N(c3ccc(F)cc3)C3CCC3)CC2)c2nc(Cl)ccc21 [Example 20, trans-6-chloro-4-((4-(cyclobutyl(4-fluorophenyl)amino)cyclohexyl)(methyl)amino)-1-methyl-2-oxo-1,2-dihydro-1,5-naphthyridine-3-carbonitrile]
100 to 1000 nM	10 to 100 nM	Cn1c(=O)c(C#N)c(N(C)[C@H]2CC[C@H](N(CC3CC3)c3cccc(F)c3)CC2)c2nc(Cl)ccc21 [Example 23, trans-6-chloro-4-((4-((cyclopropylmethyl)(3-fluorophenyl)amino)cyclohexyl)(methyl)amino)-1-methyl-2-oxo-1,2-dihydro-1,5-naphthyridine-3-carbonitrile]
≥ 1000 nM	10 to 100 nM	Cn1c(=O)cc(N(C)[C@H]2CC[C@@H](N(CC3CC3)c3cccc(F)c3)CC2)c2nc(C#N)ccc21 [Example 24, cis-8-((4-((cyclopropylmethyl)(3-fluorophenyl)amino)cyclohexyl)(methyl)amino)-5-methyl-6-oxo-5,6-dihydro-1,5-naphthyridine-2-carbonitrile]
100 to 1000 nM	10 to 100 nM	Cn1c(=O)c(C#N)c(N(C)[C@H]2CC[C@@H](N(CC3CC3)c3cccc(F)c3)CC2)c2nc(C#N)ccc21 [Example 26, cis-8-((4-((cyclopropylmethyl)(3-fluorophenyl)amino)cyclohexyl)(methyl)amino)-5-methyl-6-oxo-5,6-dihydro-1,5-naphthyridine-2,7-dicarbonitrile]
100 to 1000 nM	100 to 1000 nM	COc1cc(F)ccc1N(CC1CC1)[C@H]1CC[C@@H](N(C)c2c(C#N)c(=O)n(C)c3ccc(C#N)nc23)CC1 [Example 31, cis-8-((4-((cyclopropylmethyl)(4-fluoro-2-methoxyphenyl)amino)cyclohexyl)(methyl)amino)-5-methyl-6-oxo-5,6-dihydro-1,5-naphthyridine-2,7-dicarbonitrile]
≥ 1000 nM	100 to 1000 nM	COc1cc(N(CC2CC2)[C@H]2CC[C@H](N(C)c3c(C#N)c(=O)n(C)c4ccc(C#N)nc34)CC2)ccc1F [Example 34, trans-8-((4-((cyclopropylmethyl)(4-fluoro-3-methoxyphenyl)amino)cyclohexyl)(methyl)amino)-5-methyl-6-oxo-5,6-dihydro-1,5-naphthyridine-2,7-dicarbonitrile]
